Measured values published in US10294234B2, “HIV inhibitor compounds” (priority 2017, dated 2019).
Like-named read-outs stand apart in the source and are kept apart here.

How the values were obtained:
[1] = tested on: HIV-1 (IIIB) in MT-4 cells; experiment: MT-4 HIV assay; format: cell-based; settings: Human immunodeficiency virus 1, MT4, 120 h
Method in brief: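 Antiviral activity was read by Cell Titer Glo after a 5-day, 37 °C culture of MT-4 cells pre-infected with a 1:250 dilution of HIV-1 (IIIB). Compounds were tested as threefold dilution series in complete RPMI. Controls were no drug, mock infection and 5 uM AZT.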

[2] = 3H Human Predicted Clearance Assay (tritiated analogs); format: in vitro ADME; set-up: unit not given here
Experimental: 3H Human Predicted Clearance Assay:
For certain compounds, tritiated analogs (H^3) were prepared to further determined their human predicted clearance with increased resolution. Those studies were performed as described above using the tritiated analogs. Data from those compounds is found in Table 2 below and reported in FIG. 1 (note ATV and DRV were not tritiated).

[3] = Method in brief: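 Depletion measured by LC/MS/MS at 2, 12, 25, 45 and 65 minutes after 1 uM compound was added to liver microsomes (0.5 mg/mL; dog, rat, human) with NADPH-regenerating cofactor, in duplicate. In vitro t1/2 converted to Clint.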
[4] = tritiated analogs, human liver microsomes
[5] = human liver microsomes 0.5 mg/mL, 1 uM compound, NADPH
[6] = HIV-1 (IIIB), MT-4 cells, 5 days, Cell Titer Glo, read-out: EC50

3H Human Predicted Cl. [2, 4]	Human Pred Cl. [3, 5] [L/H/kg]	Rat. Pred. Cl. ([3]; rat liver microsomes 0.5 mg/mL, 1 uM compound, NADPH) [L/H/kg]	SMILES	EC50 [1] [nM]	EC50 [1, 6] [nM]	3H Human Predicted Cl. ([2]; human, 1 uM)	Human Pred Cl. ([3]; human, microsomes) [L/H/kg]	Rat. Pred. Cl. ([3]; rat, microsomes) [L/H/kg]	Dog. Pred. Cl. ([3]; dog, microsomes) [L/H/kg]
0.14	<0.11	1.2	COC(=O)N[C@H](C(=O)N[C@@H](Cc1ccc(C#Cc2ccc(N3C[C@H]4C[C@@H]3CN4C3COC3)nc2)cc1)[C@@H](O)CN(Cc1c(F)cc(-c2ccn(C(F)F)n2)cc1F)NC(=O)[C@@H](NC(=O)OC)C(C)(C)C(F)(F)F)C(C)(C)C(F)(F)F [Example 173, Methyl ((5S,8S,9S,14S)-11-(4-(1-(difluoromethyl)-1H-pyrazol-3-yl)-2,6-difluorobenzyl)-16,16,16-trifluoro-9-hydroxy-15,15-dimethyl-8-(4-((6-((1R,4R)-5-(oxetan-3-yl)-2,5-diazabicyclo[2.2.1]heptan-2-yl)pyridin-3-yl)ethynyl)benzyl)-3,6,13-trioxo-5-(1,1,1-trifluoro-2-methylpropan-2-yl)-2-oxa-4,7,11,12-tetraazahexadecan-14-yl)carbamate]	2.55					
			COC(=O)N[C@H](C(=O)N[C@@H](Cc1ccc(C#Cc2ccc(N3CC4CCC(C3)N4C3COC3)nc2)cc1)[C@@H](O)CN(Cc1c(F)cc(-c2nnc(C3CC3)s2)cc1F)NC(=O)[C@@H](NC(=O)OC)C(C)(C)C(F)(F)F)C(C)(C)C(F)(F)F [Example 75, Methyl ((5S,8S,9S,14S)-11-(4-(5-cyclopropyl-1,3,4-thiadiazol-2-yl)-2,6-difluorobenzyl)-16,16,16-trifluoro-9-hydroxy-15,15-dimethyl-8-(4-((6-(8-(oxetan-3-yl)-3,8-diazabicyclo[3.2.1]octan-3-yl)pyridin-3-yl)ethynyl)benzyl)-3,6,13-trioxo-5-(1,1,1-trifluoro-2-methylpropan-2-yl)-2-oxa-4,7,11,12-tetraazahexadecan-14-yl)carbamate]		3.41	0.11	<0.11	0.21	
0.11	<0.11		COC(=O)N[C@H](C(=O)N[C@@H](Cc1ccc(C#Cc2ccc(N3CCN4CCOC[C@H]4C3)nc2)cc1)[C@@H](O)CN(Cc1c(F)cc(-c2ccn(C(F)F)n2)cc1F)NC(=O)[C@@H](NC(=O)OC)C(C)(C)C(F)(F)F)C(C)(C)C(F)(F)F [Example 51, methyl ((5S,8S,9S,14S)-11-(4-(1-(difluoromethyl)-1H-pyrazol-3-yl)-2,6-difluorobenzyl)-16,16,16-trifluoro-8-(4-((6-((R)-hexahydropyrazino[2,1-c][1,4]oxazin-8(1H)-yl)pyridin-3-yl)ethynyl)benzyl)-9-hydroxy-15,15-dimethyl-3,6,13-trioxo-5-(1,1,1-trifluoro-2-methylpropan-2-yl)-2-oxa-4,7,11,12-tetraazahexadecan-14-yl)carbamate]	2.8					
			COC(=O)N[C@H](C(=O)NN(Cc1c(F)cc(-c2ccn(C(F)F)n2)cc1F)C[C@H](O)[C@H](Cc1ccc(C#Cc2cnc(N3CC4CCC(C3)N4C3COC3)nc2)cc1)NC(=O)[C@@H](NC(=O)OC)C(C)(C)C(F)(F)F)C(C)(C)C [Example 23, Methyl ((5S,8S,9S,14S)-11-(4-(1-(difluoromethyl)-1H-pyrazol-3-yl)-2,6-difluorobenzyl)-9-hydroxy-15,15-dimethyl-8-(4-((2-(8-(oxetan-3-yl)-3,8-diazabicyclo[3.2.1]octan-3-yl)pyrimidin-5-yl)ethynyl)benzyl)-3,6,13-trioxo-5-(1,1,1-trifluoro-2-methylpropan-2-yl)-2-oxa-4,7,11,12-tetraazahexadecan-14-yl)carbamate]		4.82	0.07	<0.11	0.22	0.21
